Measurements reported in patent US11566007B2, “Ras inhibitors” (Revolution Medicines, Inc., priority 2019, dated 2023).
Like-named read-outs stand apart in the source and are kept apart here.

What was measured:
[1] = test system: NCI-H358 cells (K-Ras G12C); assay: Potency assay: pERK in NCI-H358 cells; assay type: cell-based, human; details: Homo sapiens, NCI-H358; H358 KRAS G12C; read-out: pERK EC50
In short: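 Inhibition of cellular pERK after a 4 h treatment, detected by AlphaLISA or In-Cell Western. IC50 from a four-parameter concentration-response fit.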

[2] = target: KRAS G13D (Homo sapiens (Human), UniProt P01116+P62937, G13D); assay: Ras-Raf (BRAF RBD) disruption / FRET / MOA assay, KRAS G13D; assay type: biochemical
Chain of KRAS G13D (P01116-2 other isoform, or with tags, fused parts or gaps G13D): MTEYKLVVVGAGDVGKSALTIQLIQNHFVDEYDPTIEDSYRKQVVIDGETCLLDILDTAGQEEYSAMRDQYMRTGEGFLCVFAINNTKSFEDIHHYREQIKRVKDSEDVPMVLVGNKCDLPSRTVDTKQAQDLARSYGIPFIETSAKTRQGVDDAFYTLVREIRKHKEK
Chain of KRAS G13D (P62937 whole entry): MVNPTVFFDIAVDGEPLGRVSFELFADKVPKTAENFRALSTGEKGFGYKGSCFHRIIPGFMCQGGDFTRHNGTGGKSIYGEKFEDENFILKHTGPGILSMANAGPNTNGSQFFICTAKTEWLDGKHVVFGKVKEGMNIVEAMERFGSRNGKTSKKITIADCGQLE
In short: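 Compounds, top final concentration 30 μM in 10-point 3-fold series, incubated 3 hours at 25° C with nucleotide-loaded Ras, cyclophilin A and BRAF RBD.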

[3] = read-out: IC50* KRAS G13D FRET data

C=CC(=O)Nc1ccc(C(=O)N(C)[C@H](C(=O)N[C@H]2Cc3cc(O)cc(c3)-c3ccc4c(c3)c(c(-c3cccnc3[C@H](C)OC)n4CC)CC(C)(C)COC(=O)[C@@H]3CCCN(N3)C2=O)C(C)C)nc1 (atropisomer, axis not shown) [Example A252]
EC50 [1]: < 5 µM
IC50 [2, 3]: 100 to 1000 nM

C=CC(=O)N1CCN(C(=O)N(C)[C@H](C(=O)N[C@H]2Cc3cc(O)cc(c3)-c3ccc4c(c3)c(c(-c3cccnc3[C@H](C)OC)n4CC)CC(C)(C)COC(=O)[C@@H]3CCCN(N3)C2=O)C(C)C)CC1 (atropisomer, axis not shown) [Example A262]
EC50 [1]: < 5 µM
IC50 [2, 3]: 10 to 100 nM

C=CS(=O)(=O)N1CC2(CCN([C@H](C(=O)N[C@H]3Cc4cc(O)cc(c4)-c4ccc5c(c4)c(c(-c4cccnc4[C@H](C)OC)n5CC)CC(C)(C)COC(=O)[C@@H]4CCCN(N4)C3=O)C(C)C)C2=O)C1 (atropisomer, axis not shown) [Example A297]
EC50 [1]: < 5 µM
IC50 [2, 3]: 100 to 1000 nM

C=CC(=O)N1CC[C@H](C(=O)N(C)[C@H](C(=O)N[C@H]2Cc3cccc(c3)-c3ccc4c(c3)c(c(-c3cccnc3[C@H](C)OC)n4CC(F)(F)F)CC(C)(C)COC(=O)[C@@H]3CCCN(N3)C2=O)C(C)C)C1 (atropisomer, axis not shown) [Example A332]
EC50 [1]: < 5 µM
IC50 [2, 3]: 1000 to 10000 nM

C=CC(=O)N1CC[C@H](C(=O)N(C)[C@H](C(=O)N[C@H]2Cc3cc(F)cc(c3)-c3ccc4c(c3)c(c(-c3cccnc3[C@H](C)OC)n4CC)CC(C)(C)COC(=O)[C@@H]3CCCN(N3)C2=O)C(C)C)C1 (atropisomer, axis not shown) [Example A342]
EC50 [1]: < 5 µM
IC50 [2, 3]: 1000 to 10000 nM

CCn1c(-c2cccnc2[C@H](C)OC)c2c3cc(ccc31)-c1cccc(c1)C[C@H](NC(=O)[C@@H](COC1CN(C(=O)C#CC(C)(C)N3CCC3)C1)C(C)C)C(=O)N1CCC[C@H](N1)C(=O)OCC(C)(C)C2 (atropisomer, axis not shown) [Example A346]
EC50 [1]: < 5 µM
IC50 [2, 3]: > 10000 nM

CO[C@@H](C)c1ncccc1-c1c2c3cc(ccc3n1CC(F)(F)F)-c1cc(F)cc(c1)C[C@H](NC(=O)[C@@H](COC1CN(C(=O)C#CC(C)(C)N(C)C)C1)C(C)C)C(=O)N1CCC[C@H](N1)C(=O)OCC(C)(C)C2 (atropisomer, axis not shown) [Example A348]
EC50 [1]: < 5 µM
IC50 [2, 3]: > 10000 nM

CCn1c(-c2cccnc2[C@H](C)OC)c2c3cc(ccc31)-c1cccc(c1)C[C@H](NC(=O)[C@H](C(C)C)N1CO[C@]3(CCN(C(=O)C#CC(C)(C)N4CCC4)C3)C1=O)C(=O)N1CCC[C@H](N1)C(=O)OCC(C)(C)C2 (atropisomer, axis not shown) [Example A351]
EC50 [1]: < 5 µM
IC50 [2, 3]: 1000 to 10000 nM

C=CC(=O)N1CC[C@@]2(CCN(C(=O)N(C)[C@H](C(=O)N[C@H]3Cc4nc(cs4)-c4ccc5c(c4)c(c(-c4cccnc4[C@H](C)OC)n5CC)CC(C)(C)COC(=O)[C@@H]4CCCN(N4)C3=O)C(C)C)C2)C1 (atropisomer, axis not shown) [Example A367]
EC50 [1]: < 5 µM
IC50 [2, 3]: 100 to 1000 nM

C=CC(=O)N(C)CC1CN(C(=O)N(C)[C@H](C(=O)N[C@H]2Cc3nc(cs3)-c3ccc4c(c3)c(c(-c3cccnc3[C@H](C)OC)n4CC)CC(C)(C)COC(=O)[C@@H]3CCCN(N3)C2=O)C(C)C)C1 (atropisomer, axis not shown) [Example A368]
EC50 [1]: < 5 µM
IC50 [2, 3]: 100 to 1000 nM

C=CC(=O)N1CC[C@]2(C1)OCN([C@H](C(=O)N[C@H]1Cc3cccc(c3)-c3ccc4c(c3)c(c(-c3cccnc3[C@H](C)OC)n4CC)CC(C)(C)COC(=O)[C@@H]3CCCN(N3)C1=O)C(C)C)C2=O (atropisomer, axis not shown) [Example A371]
EC50 [1]: < 5 µM
IC50 [2, 3]: > 10000 nM

CO[C@@H](C)c1ncccc1-c1c2c3cc(ccc3n1CC(F)(F)F)N1CCO[C@@H](C[C@H](NC(=O)[C@@H](COC3CN(C(=O)C#CC(C)(C)N(C)C)C3)C(C)C)C(=O)N3CCC[C@H](N3)C(=O)OCC(C)(C)C2)C1 (atropisomer, axis not shown) [Example A375, (2R)-2-(((1-(4-(dimethylamino)-4-methylpent-2-ynoyl)azetidin-3-yl)oxy)methyl)-N-((2^2S,6^3S,4S)-1^2-(2-((S)-1-methoxyethyl)pyridin-3-yl)-10,10-dimethyl-5,7-dioxo-1^1-(2,2,2-trifluoroethyl)-6^1,6^2,6^3,6^4,6^5,6^6-hexahydro-1^1H-8-oxa-2(4,2)-morpholina-1(5,3)-indola-6(1,3)-pyridazinacycloundecaphane-4-yl)-3-methylbutanamide]
EC50 [1]: < 5 µM
IC50 [2, 3]: > 10000 nM

C=CC(=O)N(C)[C@@H]1CCCN(C(=O)N(C)[C@H](C(=O)N[C@H]2Cc3nc(cs3)-c3ccc4c(c3)c(c(-c3cccnc3[C@H](C)OC)n4CC)CC(C)(C)COC(=O)[C@@H]3CCCN(N3)C2=O)C(C)C)C1 (atropisomer, axis not shown) [Example A382]
EC50 [1]: < 5 µM
IC50 [2, 3]: 100 to 1000 nM

C=CC(=O)N(C)C1CCN(C(=O)N(C)[C@H](C(=O)N[C@H]2Cc3nc(cs3)-c3ccc4c(c3)c(c(-c3cccnc3[C@H](C)OC)n4CC)CC(C)(C)COC(=O)[C@@H]3CCCN(N3)C2=O)C(C)C)CC1 (atropisomer, axis not shown) [Example A383]
EC50 [1]: < 5 µM
IC50 [2, 3]: 100 to 1000 nM

C=CC(=O)N1C[C@@H](C)N(C(=O)N(C)[C@H](C(=O)N[C@H]2Cc3nc(cs3)-c3ccc4c(c3)c(c(-c3cccnc3[C@H](C)OC)n4CC)CC(C)(C)COC(=O)[C@@H]3CCCN(N3)C2=O)C(C)C)[C@H](C)C1 (atropisomer, axis not shown) [Example A388]
EC50 [1]: < 5 µM
IC50 [2, 3]: 10 to 100 nM

C=CC(=O)N1C[C@@H]2CN(C(=O)N(C)[C@H](C(=O)N[C@H]3Cc4nc(cs4)-c4ccc5c(c4)c(c(-c4cccnc4[C@H](C)OC)n5CC)CC(C)(C)COC(=O)[C@@H]4CCCN(N4)C3=O)C(C)C)C[C@@H]2C1 (atropisomer, axis not shown) [Example A389]
EC50 [1]: < 5 µM
IC50 [2, 3]: 100 to 1000 nM

C=CC(=O)N(C)[C@@H]1CCN(C(=O)N(C)[C@H](C(=O)N[C@H]2Cc3nc(cs3)-c3ccc4c(c3)c(c(-c3cccnc3[C@H](C)OC)n4CC)CC(C)(C)COC(=O)[C@@H]3CCCN(N3)C2=O)C(C)C)C1 (atropisomer, axis not shown) [Example A416]
EC50 [1]: < 5 µM
IC50 [2, 3]: 100 to 1000 nM

C=CC(=O)N1CC[C@H](C(=O)N(C)[C@H](C(=O)N[C@H]2Cc3coc(n3)-c3ccc4c(c3)c(c(-c3cccnc3[C@H](C)OC)n4CC)CC(C)(C)COC(=O)[C@@H]3CCCN(N3)C2=O)C(C)C)C1 (atropisomer, axis not shown) [Example A468]
EC50 [1]: < 5 µM
IC50 [2, 3]: 1000 to 10000 nM

C=CC(=O)N1CCN(C(=O)N(C)[C@H](C(=O)N[C@H]2Cc3nc(cs3)-c3ccc4c(c3)c(c(-c3cccnc3[C@H](C)OC)n4CC)CC(C)(C)COC(=O)[C@@H]3CCCN(N3)C2=O)C(C)C)CC1 (atropisomer, axis not shown) [Example A491]
EC50 [1]: < 5 µM
IC50 [2, 3]: 100 to 1000 nM

C=CC(=O)N1CC[C@H](C(=O)N(C)[C@H](C(=O)N[C@H]2Cc3nc(cs3)-c3ccc4c(c3)c(c(-c3cccnc3[C@H](C)OC)n4CC(F)(F)F)CC(C)(C)COC(=O)[C@@H]3CCCN(N3)C2=O)C(C)C)C1 (atropisomer, axis not shown) [Example A502]
EC50 [1]: < 5 µM
IC50 [2, 3]: 1000 to 10000 nM

C=CC(=O)N1CC[C@H](C(=O)N(C)[C@H](C(=O)N[C@H]2Cc3cc(CF)cc(c3)-c3ccc4c(c3)c(c(-c3cccnc3[C@H](C)OC)n4CC)CC(C)(C)COC(=O)[C@@H]3CCCN(N3)C2=O)C(C)C)C1 (atropisomer, axis not shown) [Example A503]
EC50 [1]: < 5 µM
IC50 [2, 3]: 1000 to 10000 nM

C=CC(=O)N1CC[C@H](C(=O)N(C)[C@H](C(=O)N[C@H]2Cc3cccc(c3)-c3ccc4c(c3)c(c(-c3cc(CN(C)C)cnc3[C@H](C)OC)n4CC)CC(C)(C)COC(=O)[C@@H]3CCCN(N3)C2=O)C(C)C)C1 (atropisomer, axis not shown) [Example A522]
EC50 [1]: < 5 µM
IC50 [2, 3]: 1000 to 10000 nM

C=CC(=O)N1CCO[C@H]2CN(C(=O)N(C)[C@H](C(=O)N[C@H]3Cc4cc(C(F)F)cc(n4)-c4ccc5c(c4)c(c(-c4cccnc4[C@H](C)OC)n5CC(F)(F)F)CC(C)(C)COC(=O)[C@@H]4CCCN(N4)C3=O)C(C)C)C[C@H]21 (atropisomer, axis not shown) [Example A540]
EC50 [1]: < 5 µM
IC50 ([2]; IC50* KRAS G13D FRET data): 1000 to 10000 nM

C=CC(=O)N1CCO[C@@H]2CN(C(=O)N(C)[C@H](C(=O)N[C@H]3Cc4nc(cs4)-c4ccc5c(c4)c(c(-c4cccnc4[C@H](C)OC)n5CC)CC(C)(C)COC(=O)[C@@H]4CCCN(N4)C3=O)C(C)C)C[C@H]21 (atropisomer, axis not shown) [Example A543]
EC50 [1]: < 5 µM
IC50 [2, 3]: 100 to 1000 nM

C=CC(=O)N1CCO[C@H]2CN(C(=O)N(C)[C@H](C(=O)N[C@H]3Cc4nc(cs4)-c4ccc5c(c4)c(c(-c4cccnc4[C@H](C)OC)n5CC)CC(C)(C)COC(=O)[C@@H]4CCCN(N4)C3=O)C(C)C)C[C@@H]21 (atropisomer, axis not shown) [Example A544]
EC50 [1]: < 5 µM
IC50 [2, 3]: 100 to 1000 nM

C=CC(=O)N1CCOC2(CCN(C(=O)N(C)[C@H](C(=O)N[C@H]3Cc4nsc(n4)-c4ccc5c(c4)c(c(-c4cccnc4[C@H](C)OC)n5CC)CC(C)(C)COC(=O)[C@@H]4CCCN(N4)C3=O)C(C)C)CC2)C1 (atropisomer, axis not shown) [Example A545]
EC50 [1]: < 5 µM
IC50 [2, 3]: 100 to 1000 nM

C=CC(=O)N1CC[C@@H]2[C@H]1CN2C(=O)N(C)[C@H](C(=O)N[C@H]1Cc2nc(cs2)-c2ccc3c(c2)c(c(-c2cccnc2[C@H](C)OC)n3CC)CC(C)(C)COC(=O)[C@@H]2CCCN(N2)C1=O)C(C)C (atropisomer, axis not shown) [Example A546]
EC50 [1]: < 5 µM
IC50 [2, 3]: 1000 to 10000 nM
